The target of assay [1] is T1, Glutamate receptor ionotropic, AMPA (Rattus norvegicus, UniProt P19490+P19491+P19492+P19493). Nature of the assay: Compound was tested for the inhibition of [3H]AMPA radioligand binding to Ionotropic glutamate receptor AMPA in synaptic plasma membrane prepared from rat forebrain; very weak inhibition. The assay is classed as cell membranes, Brain/Plasma.
Assay [2] deals with Glutamate NMDA receptor. Briefly: Compound was tested for the inhibition of [3H]L-Glutamate radioligand binding to NMDA receptor in synaptic plasma membrane prepared from rat forebrain; very weak inhibition. The assay is classed as cell membranes, Brain/Plasma.
Assay [3] has as its target Glutamate receptor ionotropic, kainate. Nature of the assay: Compound was tested for the inhibition of [3H]kainate radioligand binding to Ionotropic glutamate receptor kainate in synaptic plasma membrane prepared from rat forebrain. The assay is classed as cell membranes, Brain/Plasma.
The species entered for assay [4] is Rattus norvegicus. Nature of the assay: Compound was tested for the inhibition of [3H]D-aspartate radioligand uptake into Synaptosomes in synaptic plasma membrane prepared from rat forebrain. The assay is classed as functional.
For assay [5], the species on record is Rattus norvegicus. Briefly: Compound was tested for the inhibition of [3H]D-aspartate radioligand uptake into Synaptosomes in synaptic plasma membrane prepared from rat forebrain; very weak inhibition. The assay is classed as functional, Brain/Plasma.
Assay [6] has as its target T1, Glutamate receptor ionotropic, AMPA. Briefly: Compound was tested for the inhibition of [3H]AMPA radioligand binding to Ionotropic glutamate receptor AMPA in synaptic plasma membrane prepared from rat forebrain. The assay is classed as cell membranes, Brain/Plasma.
Assay [7] addresses Glutamate NMDA receptor. Nature of the assay: Compound was tested for the inhibition of [3H]L-Glutamate radioligand binding to NMDA receptor in synaptic plasma membrane prepared from rat forebrain. The assay is classed as cell membranes, Brain/Plasma.

`CC(C)[C@H]1CN[C@H](C(=O)O)[C@H]1CC(=O)O` [DIHYDROKAINATE]: the Ki in assay [1] was over 500 µM; at Glutamate NMDA receptor [2], over 300 µM; in assay [3], 16 µM; in the assay listed under Rattus norvegicus [4], 30 µM.
`O=C(O)C[C@H]1CCN[C@@H]1C(=O)O` [TRANS-CPPA]: the Ki in the assay listed under Rattus norvegicus [5] was over 250 µM; in assay [6], 106 µM; on Glutamate NMDA receptor [7], 0.5 µM; in assay [3], 1.6 µM.

The Ki is the dissociation constant of the complex between target and ligand, obtained from inhibition or displacement. Low values mean a stronger hold on the target, high ones a looser hold on the target.

(Values after ChEMBL document CHEMBL1129115, “The role of the C-4 side chain of kainate and dihydrokainate in EAA receptor and transporter selectivity” (Bioorg Med Chem Lett, 1996).)
